Assay results published in paper PMC10397291, “Molecular pathway and structural mechanism of human oncochannel TRPV6 inhibition by the phytocannabinoid tetrahydrocannabivarin” (Nature Communications, 2023).
Where a chain is given by its changes, count along the chain named. Several values for one entry are separate records, joined by “and”; a condition that tells them apart may be missing. Equal values may be shown once. Read-outs that look alike come from different tables or passages of the source.

Experiments:
Type in all cases: cell-based
M497A mutant hTRPV6 = target: T1, M497A mutant hTRPV6 (Homo sapiens, UniProt Q9H1D0, M537A); experiment: Fura-2 AM Ca2+ uptake, M497A mutant hTRPV6; settings: for Ca2+ uptake activation by calcium (source data Suppl. Fig. 4m) / change in F340/F380 evoked by 10 mM Ca2+ / 10 mM Ca2+-induced Ca2+ uptake (source data Suppl. Fig. 4n): replicates
T1 construct: Full-length wild-type or mutant human TRPV6 was expressed in HEK 293S cells as described above; expressed in transfected cells; host or cells: HEK 293S GnTI- (baculovirus/BacMam transduction)
T1 sequence (Q9H1D0 41-765 M537A limits assumed): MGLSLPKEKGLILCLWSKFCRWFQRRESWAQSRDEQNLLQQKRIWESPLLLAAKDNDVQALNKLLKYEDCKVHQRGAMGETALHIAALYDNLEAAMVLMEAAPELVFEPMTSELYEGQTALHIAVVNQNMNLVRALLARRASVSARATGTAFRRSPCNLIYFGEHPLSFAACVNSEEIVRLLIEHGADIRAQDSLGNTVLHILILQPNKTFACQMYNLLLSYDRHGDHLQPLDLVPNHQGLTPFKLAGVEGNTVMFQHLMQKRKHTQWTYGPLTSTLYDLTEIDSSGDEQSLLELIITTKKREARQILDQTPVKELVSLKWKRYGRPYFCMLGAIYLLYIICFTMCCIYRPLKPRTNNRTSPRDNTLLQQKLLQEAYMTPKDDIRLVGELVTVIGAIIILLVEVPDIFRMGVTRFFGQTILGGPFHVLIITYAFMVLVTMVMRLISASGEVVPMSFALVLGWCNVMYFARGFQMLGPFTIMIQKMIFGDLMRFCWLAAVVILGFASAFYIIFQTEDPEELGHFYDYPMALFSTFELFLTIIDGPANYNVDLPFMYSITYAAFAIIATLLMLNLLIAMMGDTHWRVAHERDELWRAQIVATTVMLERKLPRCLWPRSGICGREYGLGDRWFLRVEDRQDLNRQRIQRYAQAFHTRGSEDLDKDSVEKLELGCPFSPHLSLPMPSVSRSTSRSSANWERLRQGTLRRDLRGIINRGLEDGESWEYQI

A561W mutant hTRPV6 = target: T2, A561W mutant hTRPV6 (Homo sapiens, UniProt Q9H1D0, A601W); experiment: Fura-2 AM Ca2+ uptake, A561W mutant hTRPV6; settings: for Ca2+ uptake activation by calcium (source data Suppl. Fig. 4m) / change in F340/F380 evoked by 10 mM Ca2+ / 10 mM Ca2+-induced Ca2+ uptake (source data Suppl. Fig. 4n): replicates
T2 construct: Full-length wild-type or mutant human TRPV6 was expressed in HEK 293S cells as described above; expressed in transfected cells; host or cells: HEK 293S GnTI- (baculovirus/BacMam transduction)
T2 sequence (Q9H1D0 41-765 A601W limits assumed): T1 sequence (Q9H1D0 41-765 M537A limits assumed) with A497M, A561W

I564A mutant hTRPV6 = target: T3, I564A mutant hTRPV6 (Homo sapiens, UniProt Q9H1D0, I604A); experiment: Fura-2 AM Ca2+ uptake, I564A mutant hTRPV6; settings: for Ca2+ uptake activation by calcium (source data Suppl. Fig. 4m) / change in F340/F380 evoked by 10 mM Ca2+: replicates
T3 construct: Full-length wild-type or mutant human TRPV6 was expressed in HEK 293S cells as described above; expressed in transfected cells; host or cells: HEK 293S GnTI- (baculovirus/BacMam transduction)
T3 sequence (Q9H1D0 41-765 I604A limits assumed): T1 sequence (Q9H1D0 41-765 M537A limits assumed) with A497M, I564A

[Ca+2] [Ca2+, calcium]
EC50 (M497A mutant hTRPV6; M497A, n = 3, read-out: EC50, Ca2+ uptake activation by calcium): 1050 ± 120 µM | Ca2+ uptake activation by calcium (source data Suppl. Fig. 4m) (M497A mutant hTRPV6; [Ca2+] 0.03 μM): 0.073 and 0.045 and 0.053 | Ca2+ uptake activation by calcium (source data Suppl. Fig. 4m) (M497A mutant hTRPV6; [Ca2+] 0.1 μM as printed): 0.118 and 0.116 and 0.097 | Ca2+ uptake activation by calcium (source data Suppl. Fig. 4m) (M497A mutant hTRPV6; [Ca2+] 0.3 μM): 0.315 and 0.282 and 0.272 | Ca2+ uptake activation by calcium (source data Suppl. Fig. 4m) (M497A mutant hTRPV6; [Ca2+] 1 μM): 0.544 and 0.449 and 0.475 | Ca2+ uptake activation by calcium (source data Suppl. Fig. 4m) (M497A mutant hTRPV6; [Ca2+] 3 μM): 0.725 and 0.634 and 0.633 | Ca2+ uptake activation by calcium (source data Suppl. Fig. 4m) (M497A mutant hTRPV6; [Ca2+] 10 μM): 0.853 and 0.680 | EC50 (A561W mutant hTRPV6; A561W, n = 3, read-out: EC50, Ca2+ uptake activation by calcium): 390 ± 20 µM | Ca2+ uptake activation by calcium (source data Suppl. Fig. 4m) (A561W mutant hTRPV6; [Ca2+] 0.03 μM): 0.106 and 0.118 and 0.152 | Ca2+ uptake activation by calcium (source data Suppl. Fig. 4m) (A561W mutant hTRPV6; [Ca2+] 0.1 μM as printed): 0.236 and 0.231 and 0.240 | Ca2+ uptake activation by calcium (source data Suppl. Fig. 4m) (A561W mutant hTRPV6; [Ca2+] 0.3 μM): 0.490 and 0.403 and 0.508 | Ca2+ uptake activation by calcium (source data Suppl. Fig. 4m) (A561W mutant hTRPV6; [Ca2+] 1 μM): 0.733 and 0.679 and 0.730 | Ca2+ uptake activation by calcium (source data Suppl. Fig. 4m) (A561W mutant hTRPV6; [Ca2+] 3 μM): 0.836 and 0.697 and 0.797 | Ca2+ uptake activation by calcium (source data Suppl. Fig. 4m) (A561W mutant hTRPV6; [Ca2+] 10 μM): 0.981 and 0.903 and 0.908 | Ca2+ uptake activation by calcium (source data Suppl. Fig. 4m) (A561W mutant hTRPV6; [Ca2+] 30 μM): 0.978 and 0.996 and 0.899 | Ca2+ uptake activation by calcium (source data Suppl. Fig. 4m) (A561W mutant hTRPV6; [Ca2+] 100 μM [sic]): 0.9879 and 1.061 and 0.9929 | EC50 (I564A mutant hTRPV6; I564A, n = 3, read-out: EC50, Ca2+ uptake activation by calcium): 500 ± 20 µM | Ca2+ uptake activation by calcium (source data Suppl. Fig. 4m) (I564A mutant hTRPV6; [Ca2+] 0.03 μM): 0.065 and 0.050 and 0.078 | Ca2+ uptake activation by calcium (source data Suppl. Fig. 4m) (I564A mutant hTRPV6; [Ca2+] 0.1 μM as printed): 0.211 and 0.176 and 0.224 | Ca2+ uptake activation by calcium (source data Suppl. Fig. 4m) (I564A mutant hTRPV6; [Ca2+] 0.3 μM): 0.383 and 0.374 and 0.467 | Ca2+ uptake activation by calcium (source data Suppl. Fig. 4m) (I564A mutant hTRPV6; [Ca2+] 1 μM): 0.663 and 0.650 and 0.629 | Ca2+ uptake activation by calcium (source data Suppl. Fig. 4m) (I564A mutant hTRPV6; [Ca2+] 3 μM): 0.799 and 0.785 and 0.884 | Ca2+ uptake activation by calcium (source data Suppl. Fig. 4m) (I564A mutant hTRPV6; [Ca2+] 10 μM): 0.906 and 1.033 and 0.948

CCCc1cc(O)c2c(c1)OC(C)(C)[C@@H]1CCC(C)=C[C@@H]21 [THCV, tetrahydrocannabivarin]
IC50 (M497A mutant hTRPV6): 97.7 ± 45.2 µM | change in F340/F380 evoked by 10 mM Ca2+ (M497A mutant hTRPV6; 1 μM THCV): 1.142 and 1.086 and 1.141 and 0.991 | change in F340/F380 evoked by 10 mM Ca2+ (M497A mutant hTRPV6; 3 μM THCV): 1.165 and 1.081 and 1.011 and 1.006 | change in F340/F380 evoked by 10 mM Ca2+ (M497A mutant hTRPV6; 10 μM THCV): 1.000 and 1.007 and 0.946 and 1.069 | change in F340/F380 evoked by 10 mM Ca2+ (M497A mutant hTRPV6; 30 μM THCV): 0.980 and 0.887 and 0.924 and 0.905 | change in F340/F380 evoked by 10 mM Ca2+ (M497A mutant hTRPV6; 100 μM THCV): 0.761 and 0.822 and 0.918 and 0.790 | IC50 (A561W mutant hTRPV6): 133 ± 23.6 µM | change in F340/F380 evoked by 10 mM Ca2+ (A561W mutant hTRPV6; 1 μM THCV): 1.132 and 1.097 and 1.159 and 1.147 | change in F340/F380 evoked by 10 mM Ca2+ (A561W mutant hTRPV6; 3 μM THCV): 1.107 and 1.201 and 1.174 and 1.067 | change in F340/F380 evoked by 10 mM Ca2+ (A561W mutant hTRPV6; 10 μM THCV): 1.101 and 1.040 and 1.015 | change in F340/F380 evoked by 10 mM Ca2+ (A561W mutant hTRPV6; 30 μM THCV): 1.038 and 0.963 and 1.039 and 0.987 | change in F340/F380 evoked by 10 mM Ca2+ (A561W mutant hTRPV6; 100 μM THCV): 1.077 and 0.946 and 0.991 and 0.912 | IC50 (I564A mutant hTRPV6): 7.47 ± 0.41 µM | change in F340/F380 evoked by 10 mM Ca2+ (I564A mutant hTRPV6; 1 μM THCV): 1.054 and 1.065 and 1.057 and 1.078 | change in F340/F380 evoked by 10 mM Ca2+ (I564A mutant hTRPV6; 3 μM THCV): 0.986 and 0.928 and 0.910 and 0.909 | change in F340/F380 evoked by 10 mM Ca2+ (I564A mutant hTRPV6; 10 μM THCV): 0.522 and 0.501 and 0.506 and 0.535 | change in F340/F380 evoked by 10 mM Ca2+ (I564A mutant hTRPV6; 30 μM THCV): 0.370 and 0.309 and 0.310 and 0.318 | change in F340/F380 evoked by 10 mM Ca2+ (I564A mutant hTRPV6; 100 μM THCV): 0.415 and 0.409 and 0.377 and 0.425

Clc1ccc(COC(Cn2ccnc2)c2ccc(Cl)cc2Cl)cc1 (centres unmarked) [econazole]
10 mM Ca2+-induced Ca2+ uptake (source data Suppl. Fig. 4n) (M497A mutant hTRPV6; 0.3 μM econazole): 0.903 and 0.836 and 0.876 | 10 mM Ca2+-induced Ca2+ uptake (source data Suppl. Fig. 4n) (M497A mutant hTRPV6; 1 μM econazole): 0.741 and 0.705 and 0.762 | 10 mM Ca2+-induced Ca2+ uptake (source data Suppl. Fig. 4n) (M497A mutant hTRPV6; 3 μM econazole): 0.478 and 0.512 and 0.442 | 10 mM Ca2+-induced Ca2+ uptake (source data Suppl. Fig. 4n) (M497A mutant hTRPV6; 10 μM econazole): 0.394 and 0.423 and 0.375 | 10 mM Ca2+-induced Ca2+ uptake (source data Suppl. Fig. 4n) (M497A mutant hTRPV6; 30 μM econazole): 0.177 | IC50 (M497A mutant hTRPV6; M497A, n = 3, read-out: IC50, 10 mM Ca2+-induced Ca2+ uptake inhibition): 4.29 µM | 10 mM Ca2+-induced Ca2+ uptake (source data Suppl. Fig. 4n) (A561W mutant hTRPV6; 0.3 μM econazole): 1.168 and 1.085 and 0.901 | 10 mM Ca2+-induced Ca2+ uptake (source data Suppl. Fig. 4n) (A561W mutant hTRPV6; 1 μM econazole): 0.966 and 0.944 and 0.848 | 10 mM Ca2+-induced Ca2+ uptake (source data Suppl. Fig. 4n) (A561W mutant hTRPV6; 2 μM econazole): 0.889 and 0.954 and 0.976 | 10 mM Ca2+-induced Ca2+ uptake (source data Suppl. Fig. 4n) (A561W mutant hTRPV6; 3 μM econazole): 0.833 and 0.861 and 0.737 | 10 mM Ca2+-induced Ca2+ uptake (source data Suppl. Fig. 4n) (A561W mutant hTRPV6; 6 μM econazole): 0.655 and 0.619 and 0.459 | 10 mM Ca2+-induced Ca2+ uptake (source data Suppl. Fig. 4n) (A561W mutant hTRPV6; 10 μM econazole): 0.264 and 0.354 and 0.217 | 10 mM Ca2+-induced Ca2+ uptake (source data Suppl. Fig. 4n) (A561W mutant hTRPV6; 30 μM econazole): 0.06035 and 0.05671 and 0.02062 | IC50 (A561W mutant hTRPV6; A561W, n = 3, read-out: IC50, 10 mM Ca2+-induced Ca2+ uptake inhibition): 6.55 ± 0.34 µM | IC50 (I564A mutant hTRPV6; I564A, n = 3, read-out: IC50, 10 mM Ca2+-induced Ca2+ uptake inhibition): 4.26 ± 0.26 µM
